Data on 5 molecules can be found in article PMC12074421, “Development and Characterization of pFluor50, a Fluorogenic-Based Kinetic Assay System for High-Throughput Inhibition Screening and Characterization of Time-Dependent Inhibition and Inhibition Type for Six Human CYPs” (Molecules, 2025).

The target of data set [1] is T1, CYP2B6 (Homo sapiens, UniProt P20813).
T1 sequence (P20813 1-491): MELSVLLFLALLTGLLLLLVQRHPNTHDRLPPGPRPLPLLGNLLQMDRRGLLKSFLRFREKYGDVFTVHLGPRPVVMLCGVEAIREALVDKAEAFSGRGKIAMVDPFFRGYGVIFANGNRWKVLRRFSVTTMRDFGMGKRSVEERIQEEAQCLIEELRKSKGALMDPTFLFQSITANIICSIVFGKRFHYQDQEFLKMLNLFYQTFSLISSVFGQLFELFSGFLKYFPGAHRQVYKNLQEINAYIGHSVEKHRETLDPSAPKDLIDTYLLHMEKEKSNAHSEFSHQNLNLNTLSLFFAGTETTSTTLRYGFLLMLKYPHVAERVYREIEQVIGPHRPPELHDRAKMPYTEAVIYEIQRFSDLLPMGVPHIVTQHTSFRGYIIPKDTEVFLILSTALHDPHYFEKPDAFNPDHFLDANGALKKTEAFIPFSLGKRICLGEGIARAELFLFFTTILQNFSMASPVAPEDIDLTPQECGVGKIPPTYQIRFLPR
Also on record: purchased Sigma Aldrich (CYPexpress, Oxford Biomedical Research, Inc.) MTOXCE2B6; method as in PMID 17433521, PMID 9732386. The note with it: read-out: Literature KM (converted), cited from earlier work.

Data set [2] addresses T1, CYP2B6. Put plainly: pFluor50 Michaelis–Menten kinetics, CYP2B6 with Bzres. The data set is classed as in vitro ADME. Also on record: purchased Sigma Aldrich (CYPexpress, Oxford Biomedical Research, Inc.) MTOXCE2B6. As for the experimental part:
(§1) In general, the protocol for determination of the Michaelis–Menten kinetic parameters (KM and Vmax) involved addition of the appropriate master mix to phosphate buffer followed by addition of the appropriate amount of enzyme to the mix. The master mix was determined for each specific CPY450 based on empirical methods involving each reagent to obtain a linear range of enzyme activity. A total of 30 µL of this enzyme mix was then added to each well of the 384-well plate. Next, initial background readings were taken for 5 min, after which the appropriate amount of substrate was dispensed into each well using the onboard reagent dispenser of the plate reader. All plates contained one blank well without enzyme (only master mix) for each substrate concentration. […] Table 1 provides the formulation of the master mix for each CYP, the kinetic read time with substrate, the read time interval, the concentration range of the substrate used for the Michaelis–Menten kinetics, the Ex and Em wavelengths, and the concentration of substrate for inhibition/activation screening. Table S1 details the specific parameters used for the plate reader for each CYP–substrate pair.
For determining the Michaelis–Menten kinetic parameters (KM and Vmax) for each CYP–substrate pair, kinetic studies were performed in which a range of different concentrations of the substrate were used. Table 1 details the formulations for the master mix, CYPexpress^TM concentrations, and concentration ranges of each specific substrate. For each CYP–substrate pair, plate reader parameters were set up as described in Table S1. The protocol used for Michaelis–Menten kinetics was similar for all the CYPs. Briefly, the working solution was prepared for each substrate and then primed into one of the dispensers on the plate reader. The other dispenser was primed with the buffer solution. 1.5 mL of phosphate buffer solution (pH 7.4) was used to prepare the master mix with the appropriate concentration of each reagent as specified in Table 1 (NADPH, NADP+, G6P, G6PDH, and/or MgCl2). The amount of CYPexpress reagent in units/(mg/mL) was determined for each enzyme as new lots may have slightly different activities, and the activity of the reagent may change over time. The appropriate mass of each CYPexpress^TM reagent needed to obtain the required units was measured using an analytical balance and was transferred to the master mix solution. This solution was mixed, and 30 µL of the solution was added to each well using a multichannel pipette. In each case, a blank control well was also included, as described in Figure S1. The plate was then transferred to the plate reader and readings were taken at the time intervals, for the appropriate length of time, and at the appropriate wavelengths as specified in Table 1.
Calibration curves were constructed using the determined plate reader settings (Figure S3) and concentrations of the products formed to allow for the calculation of product formation rates based on the observed fluorescence. For these calculations, we presumed that the total increase in observed fluorescence over time was due only to product formation. Calibration curves were generated with 6 different concentrations of the products (fluorescein and resorufin), which spanned the relative fluorescence units (RFU) observed during the kinetic experiments. This allowed for the calculation of product concentrations from the observed RFU, enabling the calculation of the product formation rates. Unfortunately, fluorescein benzyl ester (the product formed from the metabolism of dibenzyl fluorescein) is not commercially available. Therefore, the exact rate of formation could not be determined, and the Vmax for CYP3A4 cleavage of dibenzyl fluorescein has been reported as the rate of change in relative fluorescence units (RFUs) per minute.

The target of data set [3] is T2, CYP3A4 (Homo sapiens, UniProt P08684). Kind of data set: pFluor50 fluorogenic CYP3A4 inhibition (IC50, time dependence).
T2 sequence (P08684 2-503 limits assumed): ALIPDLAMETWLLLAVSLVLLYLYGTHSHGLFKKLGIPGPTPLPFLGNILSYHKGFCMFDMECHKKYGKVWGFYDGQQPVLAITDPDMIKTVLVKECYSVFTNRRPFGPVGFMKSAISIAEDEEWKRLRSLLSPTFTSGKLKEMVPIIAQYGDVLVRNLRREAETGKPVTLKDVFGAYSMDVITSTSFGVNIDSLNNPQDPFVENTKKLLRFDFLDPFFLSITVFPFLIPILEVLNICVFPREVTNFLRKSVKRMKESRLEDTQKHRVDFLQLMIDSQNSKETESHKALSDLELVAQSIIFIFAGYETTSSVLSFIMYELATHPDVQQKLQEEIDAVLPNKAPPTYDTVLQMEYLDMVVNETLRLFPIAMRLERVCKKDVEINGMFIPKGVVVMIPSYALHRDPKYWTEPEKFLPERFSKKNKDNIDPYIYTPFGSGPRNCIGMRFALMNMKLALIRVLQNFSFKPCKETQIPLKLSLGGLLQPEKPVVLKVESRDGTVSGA
The target in data set [4] is T2, CYP3A4. On the set-up: purchased Sigma Aldrich (CYPexpress, Oxford Biomedical Research, Inc.) MTOXCE3A4. To be noted: read-out: Literature IC50 (converted), cited from earlier work.
In data set [5] the target is T2, CYP3A4. Also on record: purchased Sigma Aldrich (CYPexpress, Oxford Biomedical Research, Inc.) MTOXCE3A4; method as in PMID 11095581, PMID 22252407. The note with it: read-out: Literature KM (converted); cited from earlier work.
For data set [6], the target named is T2, CYP3A4. Kind of data set: pFluor50 Michaelis–Menten kinetics, CYP3A4 with DBF. The data set is classed as in vitro ADME. Also on record: purchased Sigma Aldrich (CYPexpress, Oxford Biomedical Research, Inc.) MTOXCE3A4. The procedure:
as §1
For determining the Michaelis–Menten kinetic parameters (KM and Vmax) for each CYP–substrate pair, kinetic studies were performed in which a range of different concentrations of the substrate were used. Table 1 details the formulations for the master mix, CYPexpress^TM concentrations, and concentration ranges of each specific substrate. For each CYP–substrate pair, plate reader parameters were set up as described in Table S1. […] Briefly, the working solution was prepared for each substrate and then primed into one of the dispensers on the plate reader. […] The amount of CYPexpress reagent in units/(mg/mL) was determined for each enzyme as new lots may have slightly different activities, and the activity of the reagent may change over time. The appropriate mass of each CYPexpress^TM reagent needed to obtain the required units was measured using an analytical balance and was transferred to the master mix solution. […]

For data set [7], the target named is T3, CYP2D6 (Homo sapiens, UniProt P10635). On the set-up: purchased Sigma Aldrich (CYPexpress, Oxford Biomedical Research, Inc.) MTOXCE2D6. The note with it: CYP2D6, Bufuralol/LC-MS/MS; read-out: Literature IC50 (converted); cited from earlier work.
T3 sequence (P10635 whole entry): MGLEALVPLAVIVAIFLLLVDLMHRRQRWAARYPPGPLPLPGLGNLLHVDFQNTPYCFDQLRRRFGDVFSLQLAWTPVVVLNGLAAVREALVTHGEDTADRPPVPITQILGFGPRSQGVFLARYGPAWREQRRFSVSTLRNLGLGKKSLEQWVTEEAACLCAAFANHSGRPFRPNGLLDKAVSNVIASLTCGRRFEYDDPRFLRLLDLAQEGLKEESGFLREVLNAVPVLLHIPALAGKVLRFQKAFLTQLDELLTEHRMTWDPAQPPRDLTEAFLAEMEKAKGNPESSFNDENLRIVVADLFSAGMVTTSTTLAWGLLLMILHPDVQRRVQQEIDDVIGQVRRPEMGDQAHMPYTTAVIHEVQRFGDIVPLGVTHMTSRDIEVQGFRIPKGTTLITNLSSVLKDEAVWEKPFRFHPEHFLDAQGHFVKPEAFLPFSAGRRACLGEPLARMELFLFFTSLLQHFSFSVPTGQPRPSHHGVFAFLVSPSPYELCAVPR
Data set [8] concerns the target T1, CYP2B6. Put plainly: pFluor50 fluorogenic CYP2B6 inhibition (IC50, time dependence). To be noted: 30 µM inhibitor, pre-incubation between 5 and 30 min.
Method: (§2) Therefore, the pre-incubation time between the inhibitor and the CYP was first optimized prior to the full IC50 determinations. […] Therefore, a 10 min pre-incubation time was selected for convenience. […] Therefore, the sertraline pre-incubation time for the inhibition assay was optimized to 30 min (the time at which inhibition was no longer time-dependent).
Data set [9] addresses T1, CYP2B6. Put plainly: biochemical.
Method: as §2
The target of data set [10] is T3, CYP2D6. Kind of data set: biochemical.
For data set [11], the target named is T1, CYP2B6. Also on record: purchased Sigma Aldrich (CYPexpress, Oxford Biomedical Research, Inc.) MTOXCE2B6. To be noted: read-out: Literature IC50 (converted), cited from earlier work.
The target in data set [12] is T3, CYP2D6. Put plainly: pFluor50 fluorogenic CYP2D6 inhibition (IC50, time dependence). To be noted: 30 µM inhibitor, pre-incubation between 5 and 30 min.
The target of another data set is CYP2C9 (Homo sapiens, UniProt P11712). The note with it: substrate Eres, model comparison by Akaike's Information Criterion.
Sequence of CYP2C9 (P11712 whole entry): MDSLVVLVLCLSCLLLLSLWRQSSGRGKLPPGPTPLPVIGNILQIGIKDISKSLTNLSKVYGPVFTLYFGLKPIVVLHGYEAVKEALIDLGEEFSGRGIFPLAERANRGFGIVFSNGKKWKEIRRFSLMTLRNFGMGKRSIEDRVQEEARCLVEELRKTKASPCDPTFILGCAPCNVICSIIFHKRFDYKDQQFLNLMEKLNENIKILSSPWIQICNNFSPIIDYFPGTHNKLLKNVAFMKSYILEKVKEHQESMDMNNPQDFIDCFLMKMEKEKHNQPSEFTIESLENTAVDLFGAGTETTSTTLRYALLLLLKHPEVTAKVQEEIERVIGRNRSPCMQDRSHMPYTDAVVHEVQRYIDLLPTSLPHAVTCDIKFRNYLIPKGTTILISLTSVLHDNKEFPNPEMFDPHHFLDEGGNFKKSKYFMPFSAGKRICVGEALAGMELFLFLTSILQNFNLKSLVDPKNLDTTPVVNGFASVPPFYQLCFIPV

Values joined by “and” are separate entries in the source; they are usually repeats but may differ in a detail not shown here. Equal values may be shown once. “Also recorded” adds a separate entry of the source. Where a name gives a salt, the structure may show the parent alone. Read-outs that look alike come from different tables or passages of the source.

As to `O=c1ccc2nc3ccc(OCc4ccccc4)cc3oc-2c1` [Bzres, 7-(benzyloxy)-3H-phenoxazin-3-one], the Michaelis constant (Km) – broadly, the concentration of substrate that gives half-maximal velocity – on CYP2B6 [1] (CYP2B6, human Bl cell) is 1.3 µM; on CYP2B6 [1] (CYP2B6), 34 ± 10.4 µM; at CYP2B6 [2] (CYP2B6 1 mg/mL, three biological replicates, read-out: Average KM) it was 40.6 ± 19.6 µM; on CYP2B6 [2] (human, CYPexpress CYP2B6 enzyme reagent, pH 7.4, CYP2B6 1 mg/mL, three biological replicates, read-out: Average KM) it was 40.6 ± 19.6 µM; on CYP2B6 [2] (human, CYPexpress CYP2B6 enzyme reagent, pH 7.4, CYP2B6, biological repeat 1, read-out: KM – repeat 1) it was 33 µM; at CYP2B6 [2] (human, CYPexpress CYP2B6 enzyme reagent, pH 7.4, CYP2B6, biological repeat 2, read-out: KM – repeat 2) it was 25.9 µM. Also, at CYP2B6 [2] (human, CYPexpress CYP2B6 enzyme reagent, pH 7.4, CYP2B6, biological repeat 3, read-out: KM – repeat 3), the Km came out at 62.9 µM. Besides, the “Average Vmax” value on CYP2B6 [2] (CYP2B6 1 mg/mL, rate of product formation) was 0.33 ± 0.1 nmol/min; at CYP2B6 [2] (CYP2B6, Table S3) it was 0.3343 ± 0.1111 nmol/min. Also, the “Vmax – repeat 1” value on CYP2B6 [2] (CYP2B6, biological repeat 1) turned out to be 276.3 pmol/min. Further, the “Vmax – repeat 2” value on CYP2B6 [2] (CYP2B6, biological repeat 2) amounted to 264.2 pmol/min. On CYP2B6 [2] (CYP2B6, biological repeat 3), the “Vmax – repeat 3” value amounted to 462.4 pmol/min.
Take `Cc1ccc(-c2c(-c3nn(C)c4ncnc(N5CC[C@H](N6CCCCC6)C5)c34)cnn2C)cc1` [CYP3cide]: the “Time dependence of CYP3A4 inhibition” value at CYP3A4 [3] (0.05 µM inhibitor, pre-incubation between 5 and 30 min) is on record as “time-dependent manner; also recorded: increase with time”. The IC50 (usually the concentration that gives 50% inhibition) on CYP3A4 [3] (read-out: Average IC50, CYP3A4, DBF 4 µM, 5 min pre-incubation, DMSO 0.5%) is 126 ± 66.2 nM; at CYP3A4 [3] (read-out: IC50 (nM)– repeat 1, CYP3A4, biological repeat 1), 108 nM; at CYP3A4 [3] (read-out: IC50 (nM)– repeat 2, CYP3A4, biological repeat 2) it was 200 nM; at CYP3A4 [3] (read-out: IC50 (nM)– repeat 3, CYP3A4, biological repeat 3) it was 70.8 nM; at CYP3A4 [4] (CYP3A4, Midazolam/LC-MS/MS) it was 300 ± 20 nM; at CYP3A4 [4] (CYP3A4, Testosterone/LC-MS/MS), 690 nM.
As for `O=C(OCc1ccccc1)c1ccccc1-c1c2ccc(=O)cc-2oc2cc(OCc3ccccc3)ccc12` [DBF, benzyl 2-(6-(benzyloxy)-3-oxo-3H-xanthen-9-yl)benzoate], on CYP3A4 [5], the Km was 0.87 µM and 1.37 µM. In addition, the “Vmax – repeat 1” value on CYP3A4 [6] (CYP3A4, biological repeat 1) is 92.28 RFU/min. Further, the “Vmax – repeat 2” value at CYP3A4 [6] (CYP3A4, biological repeat 2) turned out to be 104.6 RFU/min. The “Vmax – repeat 3” value on CYP3A4 [6] (CYP3A4, biological repeat 3) stood at 76.71 RFU/min.
In the case of `CN[C@H]1CC[C@@H](c2ccc(Cl)c(Cl)c2)c2ccccc21` [Sertraline, sertraline hydrochloride], the half-inhibitory concentration (IC50) on CYP2D6 [7] is 2000 nM; at CYP2B6 [9] it was 385 nM and 1390 nM and 477 nM and 752 nM; at CYP2D6 [10] it was 5790 nM and 3220 nM and 4240 nM and 4420 nM; at CYP2B6 [11] (CYP2B6, Bupropion/LC-MS/MS, ref 52), 200 ± 24 nM; on CYP2B6 [11] (CYP2B6, Bupropion/LC-MS/MS, ref 54), 1430 nM; at CYP2B6 [11] (CYP2B6, HLM, Bupropion/LC-MS/MS), 3200 nM. For the same molecule, the “Time dependence of CYP2B6 inhibition” value on CYP2B6 [8] is reported as “increases with time; also recorded: time-dependent manner”. Also, the “Time dependence of CYP2D6 inhibition” value on CYP2D6 [12] is “time-dependent manner; also recorded: increase in inhibition with time”.
Take `Nc1ccc(S(=O)(=O)Nc2ccnn2-c2ccccc2)cc1` [Sulfaphenazole, sulfaphenazole]: on CYP2C9, the “Type of inhibition of CYP2C9” value is “competitive inhibition”.
